Test results published in ChEMBL document CHEMBL1153753, “Structure-activity relationships and mechanism of action of antitumor bis 8-hydroxyquinoline substituted benzylamines” (Eur J Med Chem, 2010).
The source made the active and inactive calls. No cut-off for these calls is given here.

Tested on: not listed separately
Assay: Cytotoxicity against human U373 cells by MTT assay
Assay type: functional, cell-based, U-373MG ATCC
Conditions: U373 MG

Row | Structure (SMILES) | IC50 [nM]
1 | O=C(O)C1CCC(CN(Cc2ccc(O)c3ncccc23)Cc2ccc(O)c3ncccc23)CC1 (stereo not drawn) | 3730
2 | Oc1ccc(CN(Cc2ccccc2C(F)(F)F)Cc2ccc(O)c3ncccc23)c2cccnc12 | 78
3 | Oc1ccc(CN(Cc2cccs2)Cc2ccc(O)c3ncccc23)c2cccnc12 | 85
4 | Oc1ccc(CN(Cc2cccc(I)c2)Cc2ccc(O)c3ncccc23)c2cccnc12 | 5600
5 | Oc1ccc(CN(Cc2ccccc2)Cc2ccc(O)c3ncccc23)c2cccnc12 | 357
6 | Oc1ccc(CN(Cc2cccc(C(F)(F)F)c2)Cc2ccc(O)c3ncccc23)c2cccnc12 | 65
7 | Oc1ccc(CN(Cc2ccc(C(F)(F)F)cc2)Cc2ccc(O)c3ncccc23)c2cccnc12 | 44
8 | Oc1ccc(CN(Cc2cc(C(F)(F)F)cc(C(F)(F)F)c2)Cc2ccc(O)c3ncccc23)c2cccnc12 | 96

Tested on: PC-3
Assay: Cytotoxicity against human PC3 cells by MTT assay
Assay type: functional, cell-based
Conditions: not given

Row | Structure (SMILES) | IC50 [nM]
9 | O=C(O)C1CCC(CN(Cc2ccc(O)c3ncccc23)Cc2ccc(O)c3ncccc23)CC1 (stereo not drawn) | 9940
10 | Oc1ccc(CN(Cc2ccccc2C(F)(F)F)Cc2ccc(O)c3ncccc23)c2cccnc12 | 179
11 | Oc1ccc(CN(Cc2cccs2)Cc2ccc(O)c3ncccc23)c2cccnc12 | 44
12 | Oc1ccc(CN(Cc2cccc(I)c2)Cc2ccc(O)c3ncccc23)c2cccnc12 | 394
13 | Oc1ccc(CN(Cc2ccccc2)Cc2ccc(O)c3ncccc23)c2cccnc12 | 258
14 | Oc1ccc(CN(Cc2cccc(C(F)(F)F)c2)Cc2ccc(O)c3ncccc23)c2cccnc12 | 37
15 | Oc1ccc(CN(Cc2ccc(C(F)(F)F)cc2)Cc2ccc(O)c3ncccc23)c2cccnc12 | 66
16 | Oc1ccc(CN(Cc2cc(C(F)(F)F)cc(C(F)(F)F)c2)Cc2ccc(O)c3ncccc23)c2cccnc12 | 71

Tested on: Nucleic Acid
Assay: Binding affinity to calf thymus DNA assessed as DNA alkylation at 2 to 100 uM after 24 hrs
Assay type: nucleic-acid assay
Conditions: Bos taurus

Row | Structure (SMILES) | Activity
17 | Oc1ccc(CN(Cc2ccc(C(F)(F)F)cc2)Cc2ccc(O)c3ncccc23)c2cccnc12 | inactive

Tested on: not listed separately
Assay: Antiproliferative activity against human U87 cells expressing GFP after 3 days by flash-cytometry
Assay type: functional, U-87MG ATCC
Conditions: U-87 MG, 72 h, read-out: ED50 (the source's name)

Row | Structure (SMILES) | EC50 [nM]
18 | Oc1ccc(CN(Cc2ccccc2C(F)(F)F)Cc2ccc(O)c3ncccc23)c2cccnc12 | < 200
19 | Oc1ccc(CN(Cc2cccs2)Cc2ccc(O)c3ncccc23)c2cccnc12 | < 200
20 | CC(C)(C)OC(=O)N(Cc1ccc(C(F)(F)F)cc1)Cc1ccc(O)c2ncccc12 | 2000
21 | Oc1ccc(CN(Cc2cccc(I)c2)Cc2ccc(O)c3ncccc23)c2cccnc12 | 2000
22 | Oc1ccc(CNCc2cccc(C(F)(F)F)c2)c2cccnc12 | 180
23 | Oc1ccc(CN(Cc2ccccc2)Cc2ccc(O)c3ncccc23)c2cccnc12 | < 500
24 | Oc1ccc(CN(Cc2ccc(C(F)(F)F)cc2)Cc2cccc3ncccc23)c2cccnc12 | > 10000
25 | Oc1ccc(CN(Cc2cccc(C(F)(F)F)c2)Cc2ccc(O)c3ncccc23)c2cccnc12 | 2000
26 | Oc1ccc(CNCc2ccc(C(F)(F)F)cc2)c2cccnc12 | > 10000
27 | Oc1ccc(CN(Cc2ccc(C(F)(F)F)cc2)Cc2ccc(O)c3ncccc23)c2cccnc12 | < 200
28 | Oc1ccc(CN(Cc2cc(C(F)(F)F)cc(C(F)(F)F)c2)Cc2ccc(O)c3ncccc23)c2cccnc12 | < 200

Tested on: not listed separately
Assay: Cytotoxicity against human KB3-1 cells assessed as reduction of glutathione level after 72 hrs by MTT assay pretreated with buthionin sulfoximine
Assay type: functional
Conditions: KB 3-1

Row | Structure (SMILES) | CC50 [nM]
29 | Oc1ccc(CN(Cc2ccc(C(F)(F)F)cc2)Cc2ccc(O)c3ncccc23)c2cccnc12 | 70

Tested on: not listed separately
Assay: Cytotoxicity against human KB3-1 cells assessed as reduction of glutathione level after 72 hrs by MTT assay
Assay type: functional
Conditions: KB 3-1, 72 h

Row | Structure (SMILES) | CC50 [nM]
30 | Oc1ccc(CN(Cc2ccc(C(F)(F)F)cc2)Cc2ccc(O)c3ncccc23)c2cccnc12 | 33

Tested on: LoVo
Assay: Cytotoxicity against human LoVo cells by MTT assay
Assay type: functional, cell-based
Conditions: not given

Row | Structure (SMILES) | IC50 [nM]
31 | O=C(O)C1CCC(CN(Cc2ccc(O)c3ncccc23)Cc2ccc(O)c3ncccc23)CC1 (stereo not drawn) | 422
32 | Oc1ccc(CN(Cc2ccccc2C(F)(F)F)Cc2ccc(O)c3ncccc23)c2cccnc12 | 93
33 | Oc1ccc(CN(Cc2cccs2)Cc2ccc(O)c3ncccc23)c2cccnc12 | 40
34 | Oc1ccc(CN(Cc2cccc(I)c2)Cc2ccc(O)c3ncccc23)c2cccnc12 | 393
35 | Oc1ccc(CN(Cc2ccccc2)Cc2ccc(O)c3ncccc23)c2cccnc12 | 91
36 | Oc1ccc(CN(Cc2cccc(C(F)(F)F)c2)Cc2ccc(O)c3ncccc23)c2cccnc12 | 94
37 | Oc1ccc(CN(Cc2ccc(C(F)(F)F)cc2)Cc2ccc(O)c3ncccc23)c2cccnc12 | 10
38 | Oc1ccc(CN(Cc2cc(C(F)(F)F)cc(C(F)(F)F)c2)Cc2ccc(O)c3ncccc23)c2cccnc12 | 10

Tested on: MCF7
Assay: Cytotoxicity against human MCF7 cells by MTT assay
Assay type: functional, cell-based
Conditions: not given

Row | Structure (SMILES) | IC50 [nM]
39 | O=C(O)C1CCC(CN(Cc2ccc(O)c3ncccc23)Cc2ccc(O)c3ncccc23)CC1 (stereo not drawn) | 9460
40 | Oc1ccc(CN(Cc2ccccc2C(F)(F)F)Cc2ccc(O)c3ncccc23)c2cccnc12 | 88
41 | Oc1ccc(CN(Cc2cccs2)Cc2ccc(O)c3ncccc23)c2cccnc12 | 35
42 | Oc1ccc(CN(Cc2cccc(I)c2)Cc2ccc(O)c3ncccc23)c2cccnc12 | 374
43 | Oc1ccc(CN(Cc2ccccc2)Cc2ccc(O)c3ncccc23)c2cccnc12 | 97
44 | Oc1ccc(CN(Cc2cccc(C(F)(F)F)c2)Cc2ccc(O)c3ncccc23)c2cccnc12 | 30
45 | Oc1ccc(CN(Cc2ccc(C(F)(F)F)cc2)Cc2ccc(O)c3ncccc23)c2cccnc12 | 34
46 | Oc1ccc(CN(Cc2cc(C(F)(F)F)cc(C(F)(F)F)c2)Cc2ccc(O)c3ncccc23)c2cccnc12 | 38

Tested on: not listed separately
Assay: Cytotoxicity against human Hs683 cells by MTT assay
Assay type: functional, cell-based
Conditions: Hs 683

Row | Structure (SMILES) | IC50 [nM]
47 | O=C(O)C1CCC(CN(Cc2ccc(O)c3ncccc23)Cc2ccc(O)c3ncccc23)CC1 (stereo not drawn) | 2860
48 | Oc1ccc(CN(Cc2ccccc2C(F)(F)F)Cc2ccc(O)c3ncccc23)c2cccnc12 | 64
49 | Oc1ccc(CN(Cc2cccs2)Cc2ccc(O)c3ncccc23)c2cccnc12 | 35
50 | Oc1ccc(CN(Cc2cccc(I)c2)Cc2ccc(O)c3ncccc23)c2cccnc12 | 479
51 | Oc1ccc(CN(Cc2ccccc2)Cc2ccc(O)c3ncccc23)c2cccnc12 | 76
52 | Oc1ccc(CN(Cc2cccc(C(F)(F)F)c2)Cc2ccc(O)c3ncccc23)c2cccnc12 | 36
53 | Oc1ccc(CN(Cc2ccc(C(F)(F)F)cc2)Cc2ccc(O)c3ncccc23)c2cccnc12 | 10
54 | Oc1ccc(CN(Cc2cc(C(F)(F)F)cc(C(F)(F)F)c2)Cc2ccc(O)c3ncccc23)c2cccnc12 | 181

Tested on: A549
Assay: Cytotoxicity against human A549 cells by MTT assay
Assay type: functional, cell-based
Conditions: not given

Row | Structure (SMILES) | IC50 [nM]
55 | O=C(O)C1CCC(CN(Cc2ccc(O)c3ncccc23)Cc2ccc(O)c3ncccc23)CC1 (stereo not drawn) | 661
56 | Oc1ccc(CN(Cc2ccccc2C(F)(F)F)Cc2ccc(O)c3ncccc23)c2cccnc12 | 46
57 | Oc1ccc(CN(Cc2cccs2)Cc2ccc(O)c3ncccc23)c2cccnc12 | 27
58 | Oc1ccc(CN(Cc2cccc(I)c2)Cc2ccc(O)c3ncccc23)c2cccnc12 | 350
59 | Oc1ccc(CN(Cc2ccccc2)Cc2ccc(O)c3ncccc23)c2cccnc12 | 544
60 | Oc1ccc(CN(Cc2cccc(C(F)(F)F)c2)Cc2ccc(O)c3ncccc23)c2cccnc12 | 38
61 | Oc1ccc(CN(Cc2ccc(C(F)(F)F)cc2)Cc2ccc(O)c3ncccc23)c2cccnc12 | 8
62 | Oc1ccc(CN(Cc2cc(C(F)(F)F)cc(C(F)(F)F)c2)Cc2ccc(O)c3ncccc23)c2cccnc12 | 9

Tested on: Nucleic Acid
Assay: Binding affinity to calf thymus DNA at 2 to 100 uM by standard spectrometry
Assay type: nucleic-acid assay
Conditions: Bos taurus

Row | Structure (SMILES) | Activity
63 | Oc1ccc(CN(Cc2ccc(C(F)(F)F)cc2)Cc2ccc(O)c3ncccc23)c2cccnc12 | inactive

Tested on: not listed separately
Assay: Cytotoxicity against human KB3 cells after 72 hrs by MTS assay
Assay type: functional
Conditions: KB3, 72 h

Row | Structure (SMILES) | CC50 [nM]
64 | O=C(O)C1CCC(CN(Cc2ccc(O)c3ncccc23)Cc2ccc(O)c3ncccc23)CC1 (stereo not drawn) | 1100
65 | Oc1ccc(CN(Cc2ccccc2C(F)(F)F)Cc2ccc(O)c3ncccc23)c2cccnc12 | 100
66 | Oc1ccc(CN(Cc2cccs2)Cc2ccc(O)c3ncccc23)c2cccnc12 | 2
67 | CC(C)(C)OC(=O)N(Cc1ccc(C(F)(F)F)cc1)Cc1ccc(O)c2ncccc12 | 10000
68 | Oc1ccc(CN(Cc2cccc(I)c2)Cc2ccc(O)c3ncccc23)c2cccnc12 | 1000
69 | Oc1ccc(CNCc2cccc(C(F)(F)F)c2)c2cccnc12 | 200
70 | Oc1ccc(CN(Cc2ccccc2)Cc2ccc(O)c3ncccc23)c2cccnc12 | 20
71 | Oc1ccc(CN(Cc2ccc(C(F)(F)F)cc2)Cc2cccc3ncccc23)c2cccnc12 | 10000
72 | Oc1ccc(CN(Cc2cccc(C(F)(F)F)c2)Cc2ccc(O)c3ncccc23)c2cccnc12 | 2200
73 | Oc1ccc(CNCc2ccc(C(F)(F)F)cc2)c2cccnc12 | 10000
74 | Oc1ccc(CN(Cc2ccc(C(F)(F)F)cc2)Cc2ccc(O)c3ncccc23)c2cccnc12 | 1
75 | Oc1ccc(CN(Cc2cc(C(F)(F)F)cc(C(F)(F)F)c2)Cc2ccc(O)c3ncccc23)c2cccnc12 | 1000

Tested on: Nucleic Acid
Assay: Binding affinity to calf thymus DNA at 2 to 100 uM by EMSA
Assay type: nucleic-acid assay
Conditions: Bos taurus

Row | Structure (SMILES) | Activity
76 | Oc1ccc(CN(Cc2ccc(C(F)(F)F)cc2)Cc2ccc(O)c3ncccc23)c2cccnc12 | inactive

Tested on: BXPC-3
Assay: Cytotoxicity against human BxPC3 cells by MTT assay
Assay type: functional, cell-based
Conditions: not given

Row | Structure (SMILES) | IC50 [nM]
77 | O=C(O)C1CCC(CN(Cc2ccc(O)c3ncccc23)Cc2ccc(O)c3ncccc23)CC1 (stereo not drawn) | 4340
78 | Oc1ccc(CN(Cc2ccccc2C(F)(F)F)Cc2ccc(O)c3ncccc23)c2cccnc12 | 274
79 | Oc1ccc(CN(Cc2cccs2)Cc2ccc(O)c3ncccc23)c2cccnc12 | 89
80 | Oc1ccc(CN(Cc2cccc(I)c2)Cc2ccc(O)c3ncccc23)c2cccnc12 | 2590
81 | Oc1ccc(CN(Cc2ccccc2)Cc2ccc(O)c3ncccc23)c2cccnc12 | 7440
82 | Oc1ccc(CN(Cc2cccc(C(F)(F)F)c2)Cc2ccc(O)c3ncccc23)c2cccnc12 | 167
83 | Oc1ccc(CN(Cc2ccc(C(F)(F)F)cc2)Cc2ccc(O)c3ncccc23)c2cccnc12 | 4300
84 | Oc1ccc(CN(Cc2cc(C(F)(F)F)cc(C(F)(F)F)c2)Cc2ccc(O)c3ncccc23)c2cccnc12 | 79

Tested on: Nucleic Acid
Assay: Binding affinity to calf thymus DNA assessed as DNA cleavage at 2 to 100 uM by electrophoresis
Assay type: nucleic-acid assay
Conditions: Bos taurus

Row | Structure (SMILES) | Activity
85 | Oc1ccc(CN(Cc2ccc(C(F)(F)F)cc2)Cc2ccc(O)c3ncccc23)c2cccnc12 | inactive

Tested on: T98G
Assay: Cytotoxicity against human T98G cells by MTT assay
Assay type: functional, cell-based
Conditions: not given

Row | Structure (SMILES) | IC50 [nM]
86 | O=C(O)C1CCC(CN(Cc2ccc(O)c3ncccc23)Cc2ccc(O)c3ncccc23)CC1 (stereo not drawn) | 9760
87 | Oc1ccc(CN(Cc2ccccc2C(F)(F)F)Cc2ccc(O)c3ncccc23)c2cccnc12 | 210
88 | Oc1ccc(CN(Cc2cccs2)Cc2ccc(O)c3ncccc23)c2cccnc12 | 88
89 | Oc1ccc(CN(Cc2cccc(I)c2)Cc2ccc(O)c3ncccc23)c2cccnc12 | 446
90 | Oc1ccc(CN(Cc2ccccc2)Cc2ccc(O)c3ncccc23)c2cccnc12 | 249
91 | Oc1ccc(CN(Cc2cccc(C(F)(F)F)c2)Cc2ccc(O)c3ncccc23)c2cccnc12 | 57
92 | Oc1ccc(CN(Cc2ccc(C(F)(F)F)cc2)Cc2ccc(O)c3ncccc23)c2cccnc12 | 99
93 | Oc1ccc(CN(Cc2cc(C(F)(F)F)cc(C(F)(F)F)c2)Cc2ccc(O)c3ncccc23)c2cccnc12 | 72
